Data on twelve compounds can be found in ChEMBL document CHEMBL1134966 (Bioorg Med Chem Lett, 2002).

Test systems include CCRF-CEM; MCF7; G-361; K562; HOS.
Common to all, as to test: cells
Common to all, as to format: functional, cell-based
Common to all, as to settings: Homo sapiens

Where only a bound is given, the exact number is not on record here.

Broadly, the IC50 is the concentration at which inhibition is half-maximal. The low end stands for greater potency, the high end for weaker potency.

Description for CCRF-CEM: In vitro cytotoxic effect on CEM cancer cell line
Description for G-361: In vitro cytotoxic effect on G361 cancer cell line
Description for HOS: In vitro cytotoxic effect on HOS cancer cell line
Description for K562: In vitro cytotoxic effect on K562 cancer cell line
Description for MCF7: In vitro cytotoxic effect on MCF-7 cancer cell line

Turning to `CC(C)n1cnc2c(NCc3ccc(O)cc3)nc(NCCCO)nc21`, the IC50 in the test on CCRF-CEM is 18.2 µM; in the test on MCF7 it was 12.7 µM; with G-361 it was 23 µM; in the test on K562 it was 57 µM.
For the compound `CC(C)n1cnc2c(NCc3cccc(O)c3)nc(NCCCO)nc21`, the IC50 stood at 26 µM in the test with HOS; 17.6 µM in the test on CCRF-CEM; 14.7 µM in the test with MCF7; 26 µM with G-361; 56 µM in the test with K562.
`CCC(CO)Nc1nc(NCc2cccc(O)c2)c2ncn(C(C)C)c2n1` (stereo unspecified): the IC50 was 11 µM in the test with HOS; 9.9 µM with CCRF-CEM; 13.7 µM with MCF7; 19.4 µM in the test with G-361; 26 µM in the test with K562.
For the compound `CC(C)C(CO)Nc1nc(NCc2ccc(O)cc2)c2ncn(C(C)C)c2n1` (stereo unspecified), the IC50 worked out at 12 µM in the test with HOS; 5.3 µM in the test on CCRF-CEM; 9.3 µM in the test on MCF7; 11.1 µM in the test on G-361; 14.8 µM in the test on K562.
For the compound `CC(C)n1cnc2c(NCc3ccccc3O)nc(NCCCO)nc21`, the IC50 with HOS was 17.2 µM; with CCRF-CEM it was 10.7 µM; in the test on MCF7 it was 12.4 µM; in the test on G-361, 13.3 µM; in the test with K562, 24 µM.
For `CCC(CO)Nc1nc(NCc2ccc(O)cc2)c2ncn(C(C)C)c2n1` (stereo unspecified), the IC50 in the test with HOS turned out to be 13 µM; in the test with CCRF-CEM it was 11 µM; with MCF7, 7.8 µM; in the test with G-361, 11.1 µM; in the test with K562, 24 µM.
For the compound `CC(C)C(CO)Nc1nc(NCc2ccccc2O)c2ncn(C(C)C)c2n1` (stereo unspecified), the IC50 was determined as 8.3 µM in the test on HOS; 4.4 µM in the test on CCRF-CEM; 5.7 µM in the test with MCF7; 7.8 µM with G-361; 10.9 µM in the test on K562.
In the case of `CC(C)C(CO)Nc1nc(NCc2cccc(O)c2)c2ncn(C(C)C)c2n1` (stereo unspecified), the IC50 in the test with CCRF-CEM came out at 6.7 µM; in the test with MCF7 it was 14.8 µM; with K562 it was 16.1 µM.
For `CC(C)n1cnc2c(NCc3ccccc3)nc(NCCCO)nc21` [BOHEMINE], the IC50 was 58 µM with HOS; 27 µM with CCRF-CEM; 28 µM with MCF7; 45 µM in the test with G-361; 113 µM with K562.
For the compound `CC[C@H](CO)Nc1nc(NCc2ccccc2O)c2ncn(C(C)C)c2n1` [OLOMOUCINE II], the IC50 with HOS turned out to be 6.3 µM; with CCRF-CEM it was 3 µM; in the test with MCF7 it was 5.3 µM; in the test with G-361, 6.3 µM; with K562, 11.1 µM.
Take `Cn1cnc2c(NCc3ccccc3)nc(NCCO)nc21` [OLOMOUCINE]: the IC50 in the test on HOS was 149 µM; with CCRF-CEM, 62 µM; in the test with G-361 it was 160 µM; with K562 it was above 167 µM.
For the compound `CC(C)[C@H](CO)Nc1nc(Nc2cccc(Cl)c2)c2ncn(C(C)C)c2n1` [PURVALANOLA], the IC50 in the test with HOS came out at 22 µM; with CCRF-CEM, 7.4 µM; with MCF7 it was 10.7 µM; with G-361 it was 24 µM; in the test on K562, 9 µM.
